{
  "source": "patent US11717528B2",
  "about": "“Methods and compositions relating to the treatment of fibrosis” (BROWN UNIVERSITY, priority 2017, dated 2023)",
  "key": {"recombinant Chit1": {"biological_target": "recombinant Chit1 (Homo sapiens, UniProt Q13231)", "sequence (Q13231 22-466, species assumed)": "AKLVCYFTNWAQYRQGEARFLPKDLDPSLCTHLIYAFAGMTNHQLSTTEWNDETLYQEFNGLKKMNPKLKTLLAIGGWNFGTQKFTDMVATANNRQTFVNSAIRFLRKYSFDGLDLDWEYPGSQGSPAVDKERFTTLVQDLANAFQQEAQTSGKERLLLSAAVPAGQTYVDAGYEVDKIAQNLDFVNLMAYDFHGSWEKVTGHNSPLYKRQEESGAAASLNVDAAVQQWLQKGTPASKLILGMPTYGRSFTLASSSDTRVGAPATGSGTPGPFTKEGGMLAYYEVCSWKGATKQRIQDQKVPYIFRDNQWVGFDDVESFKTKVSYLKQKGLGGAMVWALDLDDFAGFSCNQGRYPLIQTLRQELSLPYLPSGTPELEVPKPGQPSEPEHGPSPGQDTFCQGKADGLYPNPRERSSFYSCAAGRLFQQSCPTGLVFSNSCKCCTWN", "experiment": "Chit1 inhibitor screen and dose-response validation", "assay_type": "biochemical", "details": "for ability to inhibit Chit1 (chitotriosidase) activity: among aminoglycoside antibiotics (FIG. 1)", "protocol": "FIG. 4 depicts dose-response validation of inhibitory activities of kasuagmycin on Chit1 activities\nChit1 is a biomarker and therapeutic target of SSc-ILD, as well as plahing a significant role in bleomycin- and IL-13-induced pulmonary fibrosis. In order to discover new therapeutic approaches for fibrotic diseases, we screened for inhibitors of Chit1, using pentoxifylline as a positive control. The results of the screen were expressed as a % of the inhibitory activity of 200 uM of pentoxifylline. This assay identified 51 compounds that have more than 45% of inhibition (compared to 200 μM pentoxifylline). One of the compounds so identified was kasugamycin.\n(§1) The results were validated by measuring dose-response (FIG. 4). Assay conditions were 0.33 nM of recombinant Chit1, 1 μM of test compound, 4 μM of substrate, 30 min incubation at room temperature."}, "[1]": {"test_system": "bleomycin-induced pulmonary fibrosis", "experiment": "bleomycin I.P. model of pulmonary fibrosis, kasugamycin I.P.", "assay_type": "in vivo, C57 BL/6 mice", "details": "for pulmonary fibrosis / total lung collagen: bleomycin 25 Unit/kg daily for 6 days, kasugamycin 50 mg/Kg I.P. every other day, 7 doses, Sircol", "protocol": "FIG. 2 depicts a schematic of experiments described herein, using a method reported by Inomata et al (Respiratory Research, 2014, 15:16) that was used for therapeutic efficacy of pirifenidone with minor modification. 8 Week old C57 BL/6 mice were used for the evaluation. Bleomycin (25 Unit/kg) was given daily for 6 days. Seven days after the last bleomycin challenge, Kasugamycin (50 mg/Kg) or PBS were delivered every other day via I.P. injection. The mice received a total of 7 doses of Kasugamycin. The mice were sacrificed a day after the last injection of Kasugamycin.\nFIG. 3A depicts the results of a lung collagen assay by Sircol. FIG. 3B depicts results of RT-PCR assay of selected extracellular matrix genes on lung lysate *p<0.05, **p<0.01 by ANOVA evaluation, Bleo, bleomycin; KSM, kasugamycin.\nThe therapeutic window of kasugamycin was investigated using the method described in Inomata et al (Respiratory Research 2014 15:16) that was used to establish the therapeutic efficacy of pirifendidone, with minor modifications. Briefly, 8 week old C57 BL/6 mice were used for the evaluation. Bleomycin (25 Unit/kg) was given daily for 6 days. Seven days after the last bleomycin challenge, kasugamycin (50 mg/Kg) or PBS were delivered every other day via I.P. injection. The mice received a total of 7 doses of kasugamycin. The mice were sacrificed a day after the last injection of kasugamycin (FIG. 2)."}, "[2]": {"test_system": "bleomycin-induced pulmonary fibrosis", "experiment": "bleomycin I.T. model of pulmonary fibrosis", "assay_type": "in vivo, mice", "details": "bleomycin I.T. model (FIG. 9)", "protocol": "FIG. 5 depicts schematic diagrams of in vivo validation of antifibrotic effect of Chit1 inhibitors using bleomycin models of pulmonary fibrosis\nFIG. 9 depicts BAL cell recovery and total lung coallagen with and without Kasugamycin treatment (I.T. Model)\nas §1"}, "[3]": {"test_system": "TGFβ1-stimulated inflammation and fibrosis", "experiment": "transgenic TGFβ1-stimulated inflammation and fibrosis", "assay_type": "in vivo, TGFβ1 transgenic mice", "details": "for fibrosis: transgenic TGFβ1 stimulation (FIG. 10, 11)", "protocol": "FIG. 10 depicts graphs of the effect of Kasugamycin on transgenic TGFβ1-stimulated inflammation and fibrosis\nFIG. 11 depicts the effect of kasugamycin on TGFβ1-stimulated fibrosis. In this figure WT=wild type mice; TG=TGFβ1 transgenic mice.\nas §1"}, "[4]": {"test_system": "fibrosis (collagen accumulation)", "experiment": "bleomycin-treated Hermansky-Pudlak syndrome mice", "assay_type": "in vivo, HPS-1 null mice (pale ear mice)", "details": "bleomycin IP 5 consecutive days, kasugamycin 50 mg/kg qod from day 12", "protocol": "FIG. 12A depicts a schematic illustration of the experiemental procedure. Bleomycin was given IP for 5 consecutive days followed by kasugamycin at 50 mg/kg qod for 7 days starting on day 12. FIG. 12B depicts a graph of the effects on fibrosis (collagen accumulation)."}, "[5]": {"test_system": "bleomycin-induced pulmonary fibrosis", "experiment": "kasugamycin by gavage in the bleomycin IP model", "assay_type": "in vivo, WT C57BL/6 mice", "details": "kasugamycin 50, 100 or 500 mg/kg by gavage everyday", "protocol": "FIGS. 13A-13B depict the effect of kasugamycin when given by gavage in the bleomycin IP model. FIG. 13A depicts a schematic illustration of the experimental procedure. Pulmonary fibrosis was induced in WT C57BL/6 mice by injecting bleomycin 6 times intra-peritoneal (IP) injection (25 unit/kg) daily (day 1-6). Units/injection—100 uL of 6 U/mL bleomycin solution (0.6 unit/injection). Kasugamycin was then administered at 50 mg/kg, 100 mg/kg, or 500 mg/kg, gavage everyday. FIG. 13B depicts a graph of the effects on collagen count. The x-axis specifies the dose of kasugamcyin used."}, "[6]": {"details": "cited from earlier work"}},
  "note": "“Also recorded” adds a separate entry of the source.",
  "data": [
    {"smiles": "C[C@H]1O[C@H](O[C@H]2[C@H](O)[C@@H](O)[C@@H](O)[C@H](O)[C@@H]2O)[C@@H](N)C[C@@H]1NC(=N)C(=O)O", "note": "[kasugamycin, 2-amino-2-[(2R,3S,5S,6R)-5-amino-2-methyl-6-[(2R,3S,5S,6S)-2,3,4,5,6-pentahydroxycyclohexyl]oxyoxan-3-yl]iminoacetic acid]", "values": [
      {"measurement": "inhibition of Chit1, expressed as % of the inhibitory activity of 200 uM pentoxifylline", "setting": "recombinant Chit1", "result": "more than 45%"},
      {"measurement": "ability to inhibit Chit1 (chitotriosidase) activity", "setting": "recombinant Chit1", "result": "can inhibit Chit1"},
      {"measurement": "ability to inhibit Chit1 (chitotriosidase) activity", "setting": "recombinant Chit1; listed as Kasugamycin", "result": "unique in its ability to inhibit chitotriosidase activity"},
      {"measurement": "ability to inhibit Chit1 (chitotriosidase) activity", "setting": "recombinant Chit1; listed as kasugamcyin", "result": "unique amongst aminoglycosides in its ability to inhibit Chit 1"},
      {"measurement": "matrix gene expression (RT-PCR on lung lysate)", "setting": "[1]; after bleomycin, kasugamycin 50 mg/Kg I.P.", "result": "decreased"},
      {"measurement": "pulmonary fibrosis / total lung collagen", "setting": "[1]", "result": "reduction of collagen; also recorded: potent inhibitor of fibrosis; also recorded: reduced pulmonary fibrosis"},
      {"measurement": "pulmonary fibrosis / total lung collagen", "setting": "[1]; listed as Kasugamycin", "result": "decreased pulmonary fibrosis"},
      {"measurement": "lung histology", "setting": "[1]; bleomycin I.P. model (FIG. 7)", "result": "affect on histology"},
      {"measurement": "BAL cell recovery", "setting": "[2]", "result": "affected BAL cell recovery"},
      {"measurement": "fibrosis / lung collagen", "setting": "[2]", "result": "reduced lung collagen; also recorded: potent inhibitor of fibrosis"},
      {"measurement": "inflammation", "setting": "[3]; transgenic TGFβ1 stimulation (FIG. 10)", "result": "inhibited inflammation"},
      {"measurement": "fibrosis", "setting": "[3]", "result": "potent inhibitor of fibrosis"},
      {"measurement": "fibrosis", "setting": "[3]; listed as Kasuagmyicn", "result": "inhibited"},
      {"measurement": "fibrosis (collagen accumulation)", "setting": "[4]", "result": "potent inhibitor of fibrosis"},
      {"measurement": "fibrosis (collagen accumulation)", "setting": "[4]; listed as Kasugamycin", "result": "reduced fibrosis"},
      {"measurement": "fibrosis (collagen count)", "setting": "[5]", "result": "reduced fibrosis"},
      {"measurement": "water solubility", "setting": "[6]", "result": "water soluble"}
    ]}
  ]
}
